Our source for the IC50 values is patent US11866431B2, “Bicyclic compounds” (Vivace Therapeutics, Inc., priority 2018, dated 2024).

For this test, the system named is 8XTBD luciferase reporter (YAP reporter) in HEK293T cells. Kind of test: YAP Reporter Assay. The conditions noted are these: Homo sapiens, HEK-293T; HEK293T cells stably transfected with 8XTBD luciferase reporter and pRLTK; 24-hr incubation; top concentration 3 μM; read-out: Firefly Luciferase IC50. In kind it is cell-based. An outline of the steps: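 Dual-luciferase read-out after 24 h compound exposure at 37° C, 5% CO2; IC50 and maximum inhibition given separately for 8XTBD-firefly and TK-renilla signals. Stable HEK293T reporter cells, 3×10^3/well, received 10-point 1:3 series starting 3 μM final, in quadruplicate.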
Broadly, the IC50 is the concentration needed to halve the response being measured. For the compound `CC#C[C@H](C)NC(=O)c1ccc2c(-c3ccc(C(F)(F)F)cc3)cccc2c1` [Compound 272, (S)—N-(pent-3-yn-2-yl)-5-(4-(trifluoromethyl)phenyl)-2-naphthamide], the IC50 was less than 100 nM. For `CC#C[C@@H](C)NC(=O)c1ccc2c(-c3ccc(C(F)(F)F)cc3)cccc2c1` [Compound 273, (R)—N-(pent-3-yn-2-yl)-5-(4-(trifluoromethyl)phenyl)-2-naphthamide], the IC50 is less than 100 nM. As for `C#C[C@H](C)NC(=O)c1ccc2c(-c3ccc(C(F)(F)F)cc3)cccc2c1` [Compound 274, (S)—N-(but-3-yn-2-yl)-5-(4-(trifluoromethyl)phenyl)-2-naphthamide], the 50% inhibitory concentration (IC50) is less than 100 nM.

Turning to `C#C[C@@H](C)NC(=O)c1ccc2c(-c3ccc(C(F)(F)F)cc3)cccc2c1` [Compound 275, (R)—N-(but-3-yn-2-yl)-5-(4-(trifluoromethyl)phenyl)-2-naphthamide], the IC50 is less than 100 nM. `C[C@H](NC(=O)c1ccc2c(-c3ccc(C(F)(F)F)cc3)cccc2c1)c1c[nH]cn1` [Compound 276, (S)—N-(1-(1H-imidazol-4-yl)ethyl)-5-(4-(trifluoromethyl)phenyl)-2-naphthamide]: the IC50 lay in the range of 100 to 1000 nM.

Regarding `C[C@@H](NC(=O)c1ccc2c(-c3ccc(C(F)(F)F)cc3)cccc2c1)c1c[nH]cn1` [Compound 277, (R)—N-(1-(1H-imidazol-4-yl)ethyl)-5-(4-(trifluoromethyl)phenyl)-2-naphthamide], the IC50 was 100 to 1000 nM.

Turning to `C[C@H](NC(=O)c1ccc2c(-c3ccc(C(F)(F)F)cc3)cccc2c1)c1nnn(C)n1` [Compound 278, (S)—N-(1-(2-methyl-2H-tetrazol-5-yl)ethyl)-5-(4-(trifluoromethyl)phenyl)-2-naphthamide], the IC50 lay within 100 to 1000 nM. Consider `C[C@@H](NC(=O)c1ccc2c(-c3ccc(C(F)(F)F)cc3)cccc2c1)c1nnn(C)n1` [Compound 279, (R)—N-(1-(2-methyl-2H-tetrazol-5-yl)ethyl)-5-(4-(trifluoromethyl)phenyl)-2-naphthamide], for which the IC50 was less than 100 nM. In the case of `C[C@H](NC(=O)c1ccc2c(-c3ccc(C(F)(F)F)cc3)cccc2c1)c1nnnn1C` [Compound 280, (S)—N-(1-(1-methyl-1H-tetrazol-5-yl)ethyl)-5-(4-(trifluoromethyl)phenyl)-2-naphthamide], the IC50 lay within 1000 to 3000 nM.

As for `C[C@@H](NC(=O)c1ccc2c(-c3ccc(C(F)(F)F)cc3)cccc2c1)c1nnnn1C` [Compound 281, (R)—N-(1-(1-methyl-1H-tetrazol-5-yl)ethyl)-5-(4-(trifluoromethyl)phenyl)-2-naphthamide], the IC50 lay in the range of 100 to 1000 nM.

Consider `C[C@H](NC(=O)c1ccc2c(-c3ccc(C(F)(F)F)cc3)cccc2c1)c1cnccn1` [Compound 282, (S)—N-(1-(pyrazin-2-yl)ethyl)-5-(4-(trifluoromethyl)phenyl)-2-naphthamide], for which the IC50 lay in the range of 100 to 1000 nM. Consider `C[C@@H](NC(=O)c1ccc2c(-c3ccc(C(F)(F)F)cc3)cccc2c1)c1cnccn1` [Compound 283, (R)—N-(1-(pyrazin-2-yl)ethyl)-5-(4-(trifluoromethyl)phenyl)-2-naphthamide], for which the IC50 was less than 100 nM. For `C[C@@H](NC(=O)c1ccc2c(-c3ccc(C(F)(F)F)cc3)cccc2c1)c1cccc(N(C)C)n1` [Compound 286, (R)—N-(1-(6-(dimethylamino)pyridin-2-yl)ethyl)-5-(4-(trifluoromethyl)phenyl)-2-naphthamide], the IC50 was less than 100 nM. Regarding `C[C@H](NC(=O)c1ccc2c(-c3ccc(C(F)(F)F)cc3)cccc2c1)c1cccc(N(C)C)n1` [Compound 287, (S)—N-(1-(6-(dimethylamino)pyridin-2-yl)ethyl)-5-(4-(trifluoromethyl)phenyl)-2-naphthamide], the half-inhibitory concentration (IC50) lay in the range of 100 to 1000 nM. With `O=C(NC1(c2ccccc2)COC1)c1ccc2c(-c3ccc(C(F)(F)F)cc3)cccc2c1` [Compound 288, N-(3-phenyloxetan-3-yl)-5-(4-(trifluoromethyl)phenyl)-2-naphthamide], the half-inhibitory concentration (IC50) is less than 100 nM.

On to `C[C@H](NC(=O)c1ccc2c(-c3ccc(C(F)(F)F)cc3)cccc2c1)C1CC1` [Compound 289, (S)—N-(1-cyclopropylethyl)-5-(4-(trifluoromethyl)phenyl)-2-naphthamide], for which the IC50 is less than 100 nM. Consider `C[C@@H](NC(=O)c1ccc2c(-c3ccc(C(F)(F)F)cc3)cccc2c1)C1CC1` [Compound 290, (R)—N-(1-cyclopropylethyl)-5-(4-(trifluoromethyl)phenyl)-2-naphthamide], for which the IC50 was less than 100 nM. With `COc1cc(-c2ccc(C(F)(F)F)cc2)c2ccc(C(=O)NC(CO)c3ccccn3)cc2c1` (stereo not drawn) [Compound 291, N-(2-Hydroxy-1-(pyridin-2-yl)ethyl)-7-methoxy-5-(4-(trifluoromethyl)phenyl)-2-naphthamide], the IC50 was less than 100 nM.

Turning to `COc1cc(-c2ccc(C(F)(F)F)cc2)c2ccc(C(=O)N[C@@H](C)c3ccccn3)cc2c1` [Compound 292, (S)-7-Methoxy-N-(1-(pyridin-2-yl)ethyl)-5-(4-(trifluoromethyl)phenyl)-2-naphthamide], the IC50 is less than 100 nM. `COc1cc(-c2ccc(C(F)(F)F)cc2)c2ccc(C(=O)N[C@H](C)c3ccccn3)cc2c1` [Compound 293, (R)-7-Methoxy-N-(1-(pyridin-2-yl)ethyl)-5-(4-(trifluoromethyl)phenyl)-2-naphthamide]: the IC50 is less than 100 nM. With `COC[C@H](C)NC(=O)c1ccc2c(-c3ccc(C(F)(F)F)cc3)cc(OC)cc2c1` [Compound 294, (S)-7-Methoxy-N-(1-methoxypropan-2-yl)-5-(4-(trifluoromethyl)phenyl)-2-naphthamide], the IC50 is less than 100 nM.

As to `COC[C@@H](C)NC(=O)c1ccc2c(-c3ccc(C(F)(F)F)cc3)cc(OC)cc2c1` [Compound 295, (R)-7-Methoxy-N-(1-methoxypropan-2-yl)-5-(4-(trifluoromethyl)phenyl)-2-naphthamide], the IC50 is less than 100 nM. As to `COc1cc(-c2ccc(C(F)(F)F)cc2)c2ccc(C(=O)N[C@@H](C)CO)cc2c1` [Compound 296, (S)—N-(1-Hydroxypropan-2-yl)-7-methoxy-5-(4-(trifluoromethyl)phenyl)-2-naphthamide], the IC50 is less than 100 nM. Consider `COc1cc(-c2ccc(C(F)(F)F)cc2)c2ccc(C(=O)N[C@H](C)CO)cc2c1` [Compound 297, (R)—N-(1-Hydroxypropan-2-yl)-7-methoxy-5-(4-(trifluoromethyl)phenyl)-2-naphthamide], for which the half-maximal inhibitory concentration (IC50) is less than 100 nM. As for `CC(C)NC(=O)c1ccc2c(-c3ccc(C(F)(F)F)cc3)cn3ncnc3c2c1` [Compound 298, N-Isopropyl-6-(4-(trifluoromethyl)phenyl)-[1,2,4]triazolo[5,1-a]isoquinoline-9-carboxamide], the 50% inhibitory concentration (IC50) fell in the range of 100 to 1000 nM. As to `CC(C)NC(=O)c1ccc2c(-c3ccc(C(F)(F)F)cc3)cn3ccnc3c2c1` [Compound 299, N-Isopropyl-6-(4-(trifluoromethyl)phenyl)imidazo[2,1-a]isoquinoline-9-carboxamide], the concentration for half-maximal inhibition (IC50) lay within 100 to 1000 nM. `CC(C)NC(=O)c1ccc2c(-c3ccc(C(F)(F)F)cc3)cc3ncnn3c2c1` [Compound 300, N-Isopropyl-5-(4-(trifluoromethyl)phenyl)-[1,2,4]triazolo[1,5-a]quinoline-8-carboxamide]: the IC50 is 100 to 1000 nM. On to `CC(C)NC(=O)c1ccc2c(-c3ccc(C(F)(F)F)cc3)cc(=O)n(C)c2c1` [Compound 306, N-Isopropyl-1-methyl-2-oxo-4-(4-(trifluoromethyl)phenyl)-1,2-dihydroquinoline-7-carboxamide], for which the IC50 lay in the range of 100 to 1000 nM.

As to `CC(C)NC(=O)c1ccc2c(-c3ccc(C(F)(F)F)cc3)cc3nncn3c2c1` [Compound 307, N-Isopropyl-5-(4-(trifluoromethyl)phenyl)-[1,2,4]triazolo[4,3-a]quinoline-8-carboxamide], the IC50 is 100 to 1000 nM. On to `CS(=O)(=O)/C=C/CCNC(=O)c1ccc2c(-c3ccc(C(F)(F)F)cc3)cccc2c1` [Compound 311, (E)-N-(4-(Methylsulfonyl)but-3-en-1-yl)-5-(4-(trifluoromethyl)phenyl)-2-naphthamide], for which the 50% inhibitory concentration (IC50) is less than 100 nM. Take `C[C@H](CCN(C)C)NC(=O)c1ccc2c(-c3ccc(C(F)(F)F)cc3)cccc2c1` [Compound 313, N-[(1R)-3-(dimethylamino)-1-methyl-propyl]-5-[4-(trifluoromethyl)phenyl]naphthalene-2-carboxamide]: the IC50 lay within 100 to 1000 nM. As to `CCNCC[C@@H](C)NC(=O)c1cnc2c(-c3ccc(C(F)(F)F)cc3)cccc2c1` [Compound 316, N-[(1R)-3-(ethylamino)-1-methyl-propyl]-8-[4-(trifluoromethyl)phenyl]quinoline-3-carboxamide], the half-inhibitory concentration (IC50) lay in the range of 100 to 1000 nM. Under `C[C@@H](NC(=O)c1cnc2c(-c3ccc(C(F)(F)F)cc3)cccc2c1)C1CN(CC(F)F)C1` [Compound 317, (R)—N-(1-(1-(2,2-difluoroethyl)azetidin-3-yl)ethyl)-8-(4-(trifluoromethyl)phenyl)quinoline-3-carboxamide] stands 100 to 1000 nM.

Regarding `C[C@@H](NC(=O)c1cnc2c(-c3ccc(C(F)(F)F)cc3)cccc2c1)C1CN(CCF)C1` [Compound 318, (R)—N-(1-(1-(2-fluoroethyl)azetidin-3-yl)ethyl)-8-(4-(trifluoromethyl)phenyl)quinoline-3-carboxamide], the IC50 was 100 to 1000 nM.

Take `C[C@H](CCN(C)C)NC(=O)c1cnc2c(-c3ccc(C(F)(F)F)cc3)cccc2c1` [Compound 319, N-[(1R)-3-(Dimethylamino)-1-methyl-propyl]-8-[4-(trifluoromethyl)phenyl]quinoline-3-carboxamide]: the IC50 lay in the range of 100 to 1000 nM.

`C[C@@H](NC(=O)c1ccc2c(-c3ccc(C(F)(F)F)cc3)cccc2c1)C1CN(C2CC2)C1` [Compound 320, (R)-N-(1-(1-cyclopropylazetidin-3-yl)ethyl)-5-(4-(trifluoromethyl)phenyl)-2-naphthamide]: the IC50 lay in the range of 100 to 1000 nM.
